“And” between values parts separate entries of the source, which are not always exact repeats. Equal entries are not always repeated.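 Results reflect a 48-hour exposure of cells in 96-well plates to compound at five concentrations. The concentration for 50% growth inhibition is given as GI50. At the TGI there is no net growth.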 *1 amine or outer side, *2 acyl side, *3 side chain or, on linkers, in order; H or OH if unused. Where a SMILES comes first, the peptide text is derived from it. Bridges are numbered along the chain shown (N, C = ends). Roman numbers before positions name the chains, in order. [ ]: non-standard residue; d: D form. Actinocin(9to1) = Cc1c2oc3c(C)ccc(C(=O)[*:1])c3nc-2c(C(=O)[*:2])c(N)c1=O; NMeV = CN[CH](C(=O)O)C(C)C; Sar = CNCC(=O)O
Tests used:
Test in all cases: inhibition of tumour cell growth, NCI panel, 48 h
UO-31 renal = test system: UO-31 renal
KM12 colon = test system: KM12 colon
OVCAR-3 ovarian = test system: OVCAR-3 ovarian
SK-MEL-2 melanoma = test system: SK-MEL-2 melanoma
UACC-257 melanoma = test system: UACC-257 melanoma
SF-268 CNS = test system: SF-268 CNS
PC-3 prostate = test system: PC-3 prostate
MDA-N = test system: MDA-N
DU-145 prostate = test system: DU-145 prostate
HCC-2998 colon = test system: HCC-2998 colon

With `O=C(c1ccccc1)c1ccc2nc(-c3c(Cl)c(Cl)c(Cl)c(Cl)c3-c3nnc(-c4ccccc4)o3)[nH]c2c1` the TGI (UO-31 renal) was greater than 100 µM, the TGI (KM12 colon) was greater than 100 µM and the TGI (OVCAR-3 ovarian) was greater than 100 µM. It also gave a TGI (SK-MEL-2 melanoma) greater than 100 µM, a TGI (UACC-257 melanoma) greater than 100 µM and a TGI (SF-268 CNS) greater than 100 µM. The TGI (PC-3 prostate) was greater than 100 µM, the TGI (MDA-N) was 15.5 µM and the TGI (DU-145 prostate) was greater than 100 µM.

Compound `Cc1c(CNc2ccc(C(=O)NC(CCCNC(=O)c3ccccc3C(=O)O)C(=O)O)cc2)cnc2nc(N)nc(N)c12` (stereo unspecified) has a GI50 (HCC-2998 colon) of 0.167 µM, a TGI (OVCAR-3 ovarian) greater than 100 µM and a GI50 (SK-MEL-2 melanoma) greater than 100 µM. The GI50 (UACC-257 melanoma) was greater than 100 µM, the TGI (UACC-257 melanoma) was greater than 100 µM and the GI50 (SF-268 CNS) was 0.00161 µM. For the same compound, the GI50 (PC-3 prostate) was less than 0.0001 µM, the TGI (PC-3 prostate) was greater than 100 µM and the TGI (DU-145 prostate) was greater than 100 µM.

With `Clc1sc(Cl)c2c1[C@@H](Cl)C[C@@H]2Cl` the TGI (HCC-2998 colon) was greater than 100 µM, the TGI (UO-31 renal) was greater than 100 µM and the TGI (KM12 colon) was greater than 100 µM. For the same compound, the TGI (OVCAR-3 ovarian) was greater than 100 µM, the TGI (SK-MEL-2 melanoma) was greater than 100 µM and the TGI (UACC-257 melanoma) was greater than 100 µM. For the same compound, the TGI (SF-268 CNS) was greater than 100 µM, the TGI (MDA-N) was greater than 100 µM and the TGI (DU-145 prostate) was greater than 100 µM.

`Cc1c2oc3c(C)ccc(C(=O)NC4C(=O)NC(Cc5ccccc5)C(=O)N5CCCC5C(=O)N(C)CC(=O)N(C)C(C(C)C)C(=O)OC4C)c3nc-2c(C(=O)NC2C(=O)NC(Cc3ccccc3)C(=O)N3CCCC3C(=O)N(C)CC(=O)N(C)C(C(C)C)C(=O)OC2C)c(N)c1=O` (stereo unspecified) (I: TFP[Sar][NMeV] / II: TFP[Sar][NMeV]; ester I:1-I:C, II:1-II:C; linker I:N-II:N via Actinocin(9to1); configuration not given here) was tested, and the GI50 (UO-31 renal) was 0.0502 µM, the TGI (UO-31 renal) was 0.468 µM and 0.31 µM and the TGI (KM12 colon) was 1.05 µM. The TGI (OVCAR-3 ovarian) was 0.0252 µM and 0.04 µM, the TGI (UACC-257 melanoma) was 0.0577 µM and the TGI (SF-268 CNS) was 0.121 µM and 0.528 µM. The TGI (MDA-N) was 0.0442 µM.

In the case of `Cc1cc(S(=O)(=O)Nc2nc3ncccc3[nH]2)c(S)cc1Cl`, the TGI (HCC-2998 colon) is reported as greater than 100 µM, the TGI (KM12 colon) is reported as greater than 100 µM and the TGI (OVCAR-3 ovarian) is reported as greater than 100 µM. It also gave a TGI (UACC-257 melanoma) greater than 100 µM, a TGI (SF-268 CNS) greater than 100 µM and a TGI (PC-3 prostate) greater than 100 µM. It also gave a TGI (MDA-N) greater than 100 µM and a TGI (DU-145 prostate) greater than 100 µM.

In the case of `NS(=O)(=O)c1nc(S(=O)(=O)O)c2[nH]cnc2n1`, the TGI (UO-31 renal) is reported as greater than 100 µM, the TGI (KM12 colon) is reported as greater than 100 µM and the TGI (OVCAR-3 ovarian) is reported as greater than 100 µM. The TGI (SK-MEL-2 melanoma) was greater than 100 µM, the TGI (UACC-257 melanoma) was greater than 100 µM and the TGI (SF-268 CNS) was greater than 100 µM. For the same compound, the TGI (PC-3 prostate) was greater than 100 µM and the TGI (MDA-N) was greater than 100 µM.

Work on `C(/C=N/NC1=NCCCCN1)=N\NC1=NCCCCN1` yielded a TGI (HCC-2998 colon) greater than 100 µM, a TGI (UO-31 renal) greater than 100 µM and a TGI (KM12 colon) greater than 100 µM. For the same compound, the TGI (OVCAR-3 ovarian) was greater than 100 µM, the TGI (UACC-257 melanoma) was greater than 100 µM and the TGI (SF-268 CNS) was greater than 100 µM. The TGI (PC-3 prostate) was greater than 100 µM and the TGI (MDA-N) was greater than 100 µM.

`O=c1c2cc(C(F)(F)F)ccc2sc2c(NCCCNCCO)nc3ccccc3c12` showed a GI50 (HCC-2998 colon) of 1.67 µM, a TGI (HCC-2998 colon) of 3.29 µM and a GI50 (UO-31 renal) of 1.37 µM. The TGI (UO-31 renal) was 2.74 µM, the GI50 (KM12 colon) was 1.62 µM and the TGI (KM12 colon) was 3.17 µM. For the same compound, the GI50 (OVCAR-3 ovarian) was 1.68 µM, the TGI (OVCAR-3 ovarian) was 3.17 µM and the GI50 (SK-MEL-2 melanoma) was 1.92 µM. The TGI (SK-MEL-2 melanoma) was 3.75 µM, the GI50 (PC-3 prostate) was 1.69 µM and the TGI (PC-3 prostate) was 3.24 µM. For the same compound, the GI50 (DU-145 prostate) was 1.74 µM and the TGI (DU-145 prostate) was 3.23 µM.

`CN1CCN(Cc2c[nH]c3c2C(=O)c2c(c(O)c4ccccc4c2O)C3=O)CC1` was tested, and the GI50 (HCC-2998 colon) was 11.2 µM, the TGI (HCC-2998 colon) was 23.3 µM and the GI50 (UO-31 renal) was 11.2 µM. For the same compound, the TGI (UO-31 renal) was 32.4 µM, the GI50 (KM12 colon) was 3.46 µM and the TGI (KM12 colon) was 15.2 µM. It also gave a GI50 (OVCAR-3 ovarian) of 11.2 µM, a TGI (OVCAR-3 ovarian) of 33.2 µM and a GI50 (UACC-257 melanoma) of 15.9 µM. It also gave a TGI (UACC-257 melanoma) of 33.1 µM, a GI50 (SF-268 CNS) of 11.1 µM and a TGI (SF-268 CNS) of 23.2 µM. For the same compound, the GI50 (PC-3 prostate) was 5.53 µM and the TGI (PC-3 prostate) was 21.6 µM.

`CNc1nnc(CCCCCCCCc2nnc(NC)o2)o1` gave a TGI (UO-31 renal) greater than 100 µM, a TGI (KM12 colon) greater than 100 µM and a TGI (OVCAR-3 ovarian) of 44.9 µM. For the same compound, the TGI (SK-MEL-2 melanoma) was greater than 100 µM, the TGI (UACC-257 melanoma) was greater than 100 µM and the TGI (PC-3 prostate) was greater than 100 µM. The TGI (MDA-N) was greater than 100 µM and the TGI (DU-145 prostate) was greater than 100 µM.

Compound `c1nc(NCCc2cnc[nH]2)c2[nH]cnc2n1` has a TGI (UO-31 renal) greater than 100 µM, a TGI (KM12 colon) greater than 100 µM and a TGI (OVCAR-3 ovarian) greater than 100 µM. The TGI (SK-MEL-2 melanoma) was greater than 100 µM, the TGI (UACC-257 melanoma) was greater than 100 µM and the TGI (SF-268 CNS) was greater than 100 µM. For the same compound, the TGI (PC-3 prostate) was greater than 100 µM, the TGI (MDA-N) was greater than 100 µM and the TGI (DU-145 prostate) was greater than 100 µM.

`O=C1CCCNn2c(nc3ncccc3c2=O)N1` was tested, and the TGI (UO-31 renal) was greater than 100 µM, the TGI (KM12 colon) was greater than 100 µM and the TGI (OVCAR-3 ovarian) was greater than 100 µM. It also gave a TGI (SK-MEL-2 melanoma) greater than 100 µM, a TGI (UACC-257 melanoma) greater than 100 µM and a TGI (SF-268 CNS) greater than 100 µM. For the same compound, the TGI (PC-3 prostate) was greater than 100 µM and the TGI (MDA-N) was greater than 100 µM.

`NCCCN(CCCCN(CCCN)C(=O)OCc1ccccc1)C(=O)OCc1ccccc1` was tested, and the TGI (HCC-2998 colon) was greater than 100 µM, the TGI (UO-31 renal) was greater than 100 µM and the TGI (KM12 colon) was greater than 100 µM. It also gave a TGI (OVCAR-3 ovarian) greater than 100 µM, a TGI (SK-MEL-2 melanoma) greater than 100 µM and a TGI (UACC-257 melanoma) greater than 100 µM. The TGI (SF-268 CNS) was greater than 100 µM, the TGI (PC-3 prostate) was greater than 100 µM and the TGI (DU-145 prostate) was greater than 100 µM.

`COC(=O)C1CC2(C)C=CC1N(C(=O)OCc1ccccc1)C2` (stereo unspecified) showed a TGI (HCC-2998 colon) greater than 100 µM, a TGI (UO-31 renal) greater than 100 µM and a TGI (KM12 colon) greater than 100 µM. For the same compound, the TGI (OVCAR-3 ovarian) was greater than 100 µM, the TGI (SK-MEL-2 melanoma) was greater than 100 µM and the TGI (UACC-257 melanoma) was greater than 100 µM. The TGI (SF-268 CNS) was greater than 100 µM, the TGI (PC-3 prostate) was greater than 100 µM and the TGI (DU-145 prostate) was greater than 100 µM.

Work on `C#CC[C@@]12CC(=O)C[C@@H]1CCC1(C2)OCCO1` (tested in a mixture with another compound) yielded a TGI (HCC-2998 colon) greater than 100 µM, a TGI (UO-31 renal) greater than 100 µM and a TGI (KM12 colon) greater than 100 µM. For the same compound, the TGI (OVCAR-3 ovarian) was greater than 100 µM, the TGI (SK-MEL-2 melanoma) was greater than 100 µM and the TGI (UACC-257 melanoma) was greater than 100 µM. For the same compound, the TGI (SF-268 CNS) was greater than 100 µM.
